{"source": "paper PMC8421360", "about": "“Spectroscopic glimpses of the transition state of ATP hydrolysis trapped in a bacterial DnaB helicase” (Nature Communications, 2021)", "target": "T1, HpDnaB (Helicobacter pylori, UniProt O25916)", "T1 construct": "gene dnaB; recombinant in E. coli BL21 Star (DE3), pACYC-duet1 (NdeI/XhoI); monomer 59 kDa; closed hexamer proposed with DNA, dodecamer in crystal 4ZC0", "T1 sequence (O25916 1-488)": "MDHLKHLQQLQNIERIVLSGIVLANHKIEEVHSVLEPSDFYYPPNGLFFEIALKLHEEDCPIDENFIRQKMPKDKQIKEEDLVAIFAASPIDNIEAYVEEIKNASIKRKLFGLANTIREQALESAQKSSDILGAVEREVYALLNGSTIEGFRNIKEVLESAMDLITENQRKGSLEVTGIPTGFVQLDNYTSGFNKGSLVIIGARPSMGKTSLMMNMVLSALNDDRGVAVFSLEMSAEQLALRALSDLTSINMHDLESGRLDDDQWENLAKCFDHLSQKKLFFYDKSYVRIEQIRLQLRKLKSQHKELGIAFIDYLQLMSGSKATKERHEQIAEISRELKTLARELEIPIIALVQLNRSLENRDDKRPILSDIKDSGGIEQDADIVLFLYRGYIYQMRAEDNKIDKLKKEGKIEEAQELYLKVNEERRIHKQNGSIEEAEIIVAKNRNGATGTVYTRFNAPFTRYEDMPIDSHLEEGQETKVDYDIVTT", "test": "proton-detected […],1H solid-state NMR (hPH, […] kHz MAS); Mn2+ EDNMR/ENDOR", "type": "binding", "settings": "as ADP:AlF4- complex; Mg2+ and (dT)20 for hPH NMR, Mn2+ without DNA for EPR; pH 7.5; Walker A nucleotide site (S206, G208, K209, T210, S211)"}
{"smiles": "Nc1ncnc2c1ncn2[C@@H]1O[C@H](COP(=O)(O)OP(=O)(O)O)[C@@H](O)[C@H]1O", "note": "[ADP]", "values": [{"measurement": "proton-detected 31P,1H solid-state NMR (hPH, 105 kHz MAS); Mn2+ EDNMR/ENDOR", "result": "spatial correlations between Pβ of ADP and S206, G208, K209 and T210"}]}
